# Measured values from ChEMBL document CHEMBL4507281, “Data for DCP probe BI-4394” (2021).
# Columns and labels:
# [1] = target: Activin receptor type-2A (Homo sapiens) (UniProt P27037); conditions: Compound concentration 100.0 nM
# [2] = target: Serine/threonine-protein kinase ICK (Homo sapiens) (UniProt Q9UPZ9); conditions: Compound concentration 100.0 nM
# [3] = target: Activated CDC42 kinase 1 (Homo sapiens) (UniProt Q07912); conditions: Compound concentration 100.0 nM
# [4] = target: Cyclin-dependent kinase 9 (Homo sapiens) (UniProt P50750); conditions: Compound concentration 100.0 nM
# [5] = target: Mitogen-activated protein kinase 1 (Homo sapiens) (UniProt P28482); conditions: Compound concentration 100.0 nM
# [6] = target: Mitogen-activated protein kinase kinase kinase kinase 2 (Homo sapiens) (UniProt Q12851); conditions: Compound concentration 100.0 nM
# [7] = target: Macrophage-stimulating protein receptor (Homo sapiens) (UniProt Q04912); conditions: Compound concentration 100.0 nM
# [8] = target: Mitogen-activated protein kinase 15 (Homo sapiens) (UniProt Q8TD08); conditions: Compound concentration 100.0 nM
# [9] = test system: Receptor-type tyrosine-protein kinase FLT3 (Homo sapiens), P36888 [D835V]; conditions: Compound concentration 100.0 nM
# [10] = target: Phosphatidylinositol 5-phosphate 4-kinase type-2 gamma (Homo sapiens) (UniProt Q8TBX8); conditions: Compound concentration 100.0 nM
# [11] = target: Cyclin-dependent kinase 2 homolog (Plasmodium falciparum (isolate 3D7)) (UniProt P61075); conditions: Compound concentration 100.0 nM
# [12] = test system: Proto-oncogene tyrosine-protein kinase receptor Ret (Homo sapiens), P07949 [M918T]; conditions: Compound concentration 100.0 nM
# [13] = target: Hormonally up-regulated neu tumor-associated kinase (Homo sapiens) (UniProt P57058); conditions: Compound concentration 100.0 nM
# [14] = target: Mitogen-activated protein kinase kinase kinase 7 (Homo sapiens) (UniProt O43318); conditions: Compound concentration 100.0 nM
# [15] = target: Serine/threonine-protein kinase PknB (Mycobacterium tuberculosis) (UniProt P9WI81); conditions: Compound concentration 100.0 nM
# [16] = target: MAP kinase-interacting serine/threonine-protein kinase 1 (Homo sapiens) (UniProt Q9BUB5); conditions: Compound concentration 100.0 nM
# [17] = target: Serine/threonine-protein kinase TAO3 (Homo sapiens) (UniProt Q9H2K8); conditions: Compound concentration 100.0 nM
# Serine/threonine-protein kinase TAO3 (Homo sapiens), sequence (Q9H2K8 whole entry): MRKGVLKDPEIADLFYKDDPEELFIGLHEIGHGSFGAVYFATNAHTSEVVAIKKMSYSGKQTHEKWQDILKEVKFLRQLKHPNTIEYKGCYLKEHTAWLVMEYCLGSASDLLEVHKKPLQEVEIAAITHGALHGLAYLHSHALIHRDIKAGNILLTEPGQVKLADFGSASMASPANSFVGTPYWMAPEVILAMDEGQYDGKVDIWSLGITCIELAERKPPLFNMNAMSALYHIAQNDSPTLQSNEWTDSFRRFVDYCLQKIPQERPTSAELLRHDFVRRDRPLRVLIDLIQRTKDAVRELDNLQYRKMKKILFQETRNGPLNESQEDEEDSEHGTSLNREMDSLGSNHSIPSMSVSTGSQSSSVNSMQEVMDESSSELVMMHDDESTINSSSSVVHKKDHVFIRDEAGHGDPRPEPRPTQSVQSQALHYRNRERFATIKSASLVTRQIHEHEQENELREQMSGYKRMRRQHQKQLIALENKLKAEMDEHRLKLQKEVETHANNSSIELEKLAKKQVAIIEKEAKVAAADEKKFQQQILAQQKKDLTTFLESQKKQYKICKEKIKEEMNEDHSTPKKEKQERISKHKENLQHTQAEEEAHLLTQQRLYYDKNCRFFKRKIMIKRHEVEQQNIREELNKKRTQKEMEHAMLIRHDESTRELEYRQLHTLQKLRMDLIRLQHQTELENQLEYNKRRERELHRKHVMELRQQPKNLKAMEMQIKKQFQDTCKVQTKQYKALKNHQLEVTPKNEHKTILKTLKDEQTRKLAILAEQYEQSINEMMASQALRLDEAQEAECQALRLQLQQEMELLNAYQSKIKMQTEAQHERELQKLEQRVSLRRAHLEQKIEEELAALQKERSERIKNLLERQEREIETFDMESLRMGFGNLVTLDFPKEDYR
# [18] = target: Myosin light chain kinase 2, skeletal/cardiac muscle (Homo sapiens) (UniProt Q9H1R3); conditions: Compound concentration 100.0 nM
# [19] = target: Tyrosine-protein kinase Yes (Homo sapiens) (UniProt P07947); conditions: Compound concentration 100.0 nM
# [20] = target: Mitogen-activated protein kinase kinase kinase 20 (Homo sapiens) (UniProt Q9NYL2); conditions: Compound concentration 100.0 nM
# [21] = target: Proto-oncogene tyrosine-protein kinase Src (Homo sapiens) (UniProt P12931); conditions: Compound concentration 100.0 nM
# [22] = test system: Phosphatidylinositol 4,5-bisphosphate 3-kinase catalytic subunit alpha isoform (Homo sapiens), P42336 [H1047Y]; conditions: Compound concentration 100.0 nM
# [23] = target: Dual serine/threonine and tyrosine protein kinase (Homo sapiens) (UniProt Q6XUX3); conditions: Compound concentration 100.0 nM
# [24] = target: STE20/SPS1-related proline-alanine-rich protein kinase (Homo sapiens) (UniProt Q9UEW8); conditions: Compound concentration 100.0 nM
# [25] = target: T1, Serine/threonine-protein kinase Chk1 (Homo sapiens) (UniProt O14757); conditions: Compound concentration 100.0 nM
# T1 sequence (whole entry): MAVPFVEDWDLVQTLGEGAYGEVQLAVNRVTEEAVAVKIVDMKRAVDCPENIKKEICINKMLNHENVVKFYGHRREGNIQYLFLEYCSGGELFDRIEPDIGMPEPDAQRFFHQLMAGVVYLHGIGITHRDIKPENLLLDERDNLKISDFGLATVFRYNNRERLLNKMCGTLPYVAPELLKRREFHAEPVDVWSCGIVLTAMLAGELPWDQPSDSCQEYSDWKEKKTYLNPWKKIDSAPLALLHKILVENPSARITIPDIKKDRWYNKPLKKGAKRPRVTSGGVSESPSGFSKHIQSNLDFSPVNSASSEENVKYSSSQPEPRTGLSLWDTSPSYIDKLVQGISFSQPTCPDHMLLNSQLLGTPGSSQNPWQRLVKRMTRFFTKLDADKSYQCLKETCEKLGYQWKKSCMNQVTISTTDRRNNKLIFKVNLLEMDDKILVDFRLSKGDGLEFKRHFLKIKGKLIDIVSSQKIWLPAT
# [26] = target: NUAK family SNF1-like kinase 1 (Homo sapiens) (UniProt O60285); conditions: Compound concentration 100.0 nM
# NUAK family SNF1-like kinase 1 (Homo sapiens), sequence (O60285 whole entry): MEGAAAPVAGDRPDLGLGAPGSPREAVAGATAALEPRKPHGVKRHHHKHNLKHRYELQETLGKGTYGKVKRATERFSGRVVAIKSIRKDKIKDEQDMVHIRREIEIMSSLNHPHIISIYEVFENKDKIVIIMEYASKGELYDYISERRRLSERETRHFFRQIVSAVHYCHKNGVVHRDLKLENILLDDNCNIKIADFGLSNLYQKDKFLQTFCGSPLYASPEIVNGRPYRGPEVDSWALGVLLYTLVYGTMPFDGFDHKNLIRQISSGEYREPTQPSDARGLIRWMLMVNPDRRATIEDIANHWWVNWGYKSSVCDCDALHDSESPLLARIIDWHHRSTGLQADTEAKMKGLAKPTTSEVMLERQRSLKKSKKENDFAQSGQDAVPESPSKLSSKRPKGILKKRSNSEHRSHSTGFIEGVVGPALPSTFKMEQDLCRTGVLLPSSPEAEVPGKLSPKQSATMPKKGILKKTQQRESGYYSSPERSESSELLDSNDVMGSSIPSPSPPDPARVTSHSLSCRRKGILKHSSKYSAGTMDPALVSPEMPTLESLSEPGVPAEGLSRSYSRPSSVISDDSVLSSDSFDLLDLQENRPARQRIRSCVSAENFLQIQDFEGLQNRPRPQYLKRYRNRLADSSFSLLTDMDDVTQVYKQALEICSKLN
# [27] = target: Serine/threonine-protein kinase 32A (Homo sapiens) (UniProt Q8WU08); conditions: Compound concentration 100.0 nM
# Serine/threonine-protein kinase 32A (Homo sapiens), sequence (Q8WU08 whole entry): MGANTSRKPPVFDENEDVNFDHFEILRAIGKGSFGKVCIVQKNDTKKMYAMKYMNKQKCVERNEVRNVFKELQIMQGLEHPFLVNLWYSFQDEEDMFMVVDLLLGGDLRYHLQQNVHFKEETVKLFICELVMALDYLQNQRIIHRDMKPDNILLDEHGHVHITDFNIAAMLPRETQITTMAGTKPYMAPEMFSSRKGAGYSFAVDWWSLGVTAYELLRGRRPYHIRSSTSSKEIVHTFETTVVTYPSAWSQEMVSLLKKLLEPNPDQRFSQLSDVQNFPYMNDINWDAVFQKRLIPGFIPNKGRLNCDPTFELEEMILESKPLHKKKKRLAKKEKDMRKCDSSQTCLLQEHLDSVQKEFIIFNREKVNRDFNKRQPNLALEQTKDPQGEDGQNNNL
# [28] = target: Interleukin-1 receptor-associated kinase 3 (Homo sapiens) (UniProt Q9Y616); conditions: Compound concentration 100.0 nM
# [29] = target: Protein kinase C delta type (Homo sapiens) (UniProt Q05655); conditions: Compound concentration 100.0 nM
# [30] = target: Macrophage colony-stimulating factor 1 receptor (Homo sapiens) (UniProt P07333); conditions: Compound concentration 100.0 nM
# [31] = target: Tyrosine-protein kinase Lyn (Homo sapiens) (UniProt P07948); conditions: Compound concentration 100.0 nM
# [32] = target: Tyrosine-protein kinase ABL1 (Homo sapiens) (UniProt P00519); conditions: Compound concentration 100.0 nM
# [33] = target: 5-hydroxytryptamine receptor 2C (Homo sapiens) (UniProt P28335); conditions: Compound concentration 10.0 uM
# [34] = target: Alpha-2C adrenergic receptor (Homo sapiens) (UniProt P18825); conditions: Compound concentration 10.0 uM
# [35] = test system: Epidermal growth factor receptor (Homo sapiens), P00533 [G719C]; conditions: Compound concentration 100.0 nM
# [36] = target: Mitogen-activated protein kinase 8 (Homo sapiens) (UniProt P45983); conditions: Compound concentration 100.0 nM
# [37] = target: Ephrin type-A receptor 2 (Homo sapiens) (UniProt P29317); conditions: Compound concentration 100.0 nM
# Ephrin type-A receptor 2 (Homo sapiens), sequence (P29317 whole entry): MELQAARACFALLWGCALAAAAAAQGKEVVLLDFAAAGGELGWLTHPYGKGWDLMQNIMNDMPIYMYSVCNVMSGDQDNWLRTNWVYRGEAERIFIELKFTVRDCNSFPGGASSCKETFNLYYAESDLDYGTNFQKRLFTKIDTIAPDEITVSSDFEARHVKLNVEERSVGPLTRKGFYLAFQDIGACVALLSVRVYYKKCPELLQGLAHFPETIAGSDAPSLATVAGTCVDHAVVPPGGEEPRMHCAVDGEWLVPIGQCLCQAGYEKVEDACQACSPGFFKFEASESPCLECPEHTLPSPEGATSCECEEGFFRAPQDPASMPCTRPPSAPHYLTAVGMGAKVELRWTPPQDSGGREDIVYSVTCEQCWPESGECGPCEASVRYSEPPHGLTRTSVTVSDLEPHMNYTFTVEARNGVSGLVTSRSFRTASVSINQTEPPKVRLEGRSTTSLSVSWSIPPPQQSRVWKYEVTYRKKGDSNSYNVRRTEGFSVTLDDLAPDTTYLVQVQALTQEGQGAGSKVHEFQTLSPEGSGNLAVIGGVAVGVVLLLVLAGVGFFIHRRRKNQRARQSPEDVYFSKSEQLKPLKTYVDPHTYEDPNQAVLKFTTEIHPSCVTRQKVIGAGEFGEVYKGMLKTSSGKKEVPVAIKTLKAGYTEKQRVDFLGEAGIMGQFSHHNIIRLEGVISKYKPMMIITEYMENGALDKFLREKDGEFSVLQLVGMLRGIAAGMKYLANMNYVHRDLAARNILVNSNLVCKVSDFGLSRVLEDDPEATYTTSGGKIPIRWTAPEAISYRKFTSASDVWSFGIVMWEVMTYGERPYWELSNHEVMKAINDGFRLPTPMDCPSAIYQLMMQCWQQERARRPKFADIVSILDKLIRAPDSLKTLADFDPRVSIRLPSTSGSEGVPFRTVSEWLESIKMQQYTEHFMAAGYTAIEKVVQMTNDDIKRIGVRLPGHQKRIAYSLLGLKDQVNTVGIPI
# [38] = target: Muscarinic acetylcholine receptor M5 (Homo sapiens) (UniProt P08912); conditions: Compound concentration 10.0 uM
# Muscarinic acetylcholine receptor M5 (Homo sapiens), sequence (P08912 whole entry): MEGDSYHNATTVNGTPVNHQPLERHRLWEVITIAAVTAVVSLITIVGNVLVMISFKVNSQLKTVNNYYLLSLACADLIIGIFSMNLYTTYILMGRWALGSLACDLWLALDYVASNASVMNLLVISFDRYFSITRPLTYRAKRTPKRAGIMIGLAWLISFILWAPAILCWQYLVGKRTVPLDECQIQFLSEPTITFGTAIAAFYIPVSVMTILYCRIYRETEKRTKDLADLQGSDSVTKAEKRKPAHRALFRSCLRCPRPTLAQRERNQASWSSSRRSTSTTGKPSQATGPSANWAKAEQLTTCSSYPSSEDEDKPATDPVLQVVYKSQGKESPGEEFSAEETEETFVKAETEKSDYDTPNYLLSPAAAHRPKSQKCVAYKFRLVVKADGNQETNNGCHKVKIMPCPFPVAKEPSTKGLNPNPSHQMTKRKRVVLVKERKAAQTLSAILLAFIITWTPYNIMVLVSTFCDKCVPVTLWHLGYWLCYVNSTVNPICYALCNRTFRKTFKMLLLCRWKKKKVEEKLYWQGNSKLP
# Activated CDC42 kinase 1 (Homo sapiens), sequence (Q07912 whole entry, looked up): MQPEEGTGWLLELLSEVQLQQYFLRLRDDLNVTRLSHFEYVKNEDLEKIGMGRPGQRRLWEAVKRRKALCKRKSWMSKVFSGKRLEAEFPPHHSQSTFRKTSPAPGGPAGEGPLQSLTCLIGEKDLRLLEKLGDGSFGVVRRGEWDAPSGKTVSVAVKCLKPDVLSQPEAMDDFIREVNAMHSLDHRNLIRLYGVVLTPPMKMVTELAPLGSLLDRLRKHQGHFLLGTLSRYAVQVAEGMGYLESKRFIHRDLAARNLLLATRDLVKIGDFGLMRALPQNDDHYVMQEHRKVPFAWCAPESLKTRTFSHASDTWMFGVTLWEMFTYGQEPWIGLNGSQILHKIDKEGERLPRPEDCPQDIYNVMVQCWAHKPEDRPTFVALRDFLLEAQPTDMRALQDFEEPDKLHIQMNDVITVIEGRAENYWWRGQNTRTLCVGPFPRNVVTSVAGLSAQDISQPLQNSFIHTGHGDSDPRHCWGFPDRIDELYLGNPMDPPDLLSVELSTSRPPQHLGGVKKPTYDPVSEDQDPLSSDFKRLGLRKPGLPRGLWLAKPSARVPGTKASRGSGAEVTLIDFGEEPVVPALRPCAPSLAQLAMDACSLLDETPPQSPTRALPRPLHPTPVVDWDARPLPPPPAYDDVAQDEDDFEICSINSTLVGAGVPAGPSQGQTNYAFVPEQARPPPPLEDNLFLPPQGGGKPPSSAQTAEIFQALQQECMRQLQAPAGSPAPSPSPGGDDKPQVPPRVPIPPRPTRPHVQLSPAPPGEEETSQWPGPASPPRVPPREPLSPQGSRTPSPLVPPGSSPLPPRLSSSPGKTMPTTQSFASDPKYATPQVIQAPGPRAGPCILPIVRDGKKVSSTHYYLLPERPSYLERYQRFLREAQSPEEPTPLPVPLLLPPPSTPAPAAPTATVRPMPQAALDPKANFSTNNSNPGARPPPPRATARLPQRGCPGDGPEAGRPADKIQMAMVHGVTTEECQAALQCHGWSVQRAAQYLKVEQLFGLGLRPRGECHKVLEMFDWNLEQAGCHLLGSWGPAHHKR
# Activin receptor type-2A (Homo sapiens), sequence (P27037 whole entry): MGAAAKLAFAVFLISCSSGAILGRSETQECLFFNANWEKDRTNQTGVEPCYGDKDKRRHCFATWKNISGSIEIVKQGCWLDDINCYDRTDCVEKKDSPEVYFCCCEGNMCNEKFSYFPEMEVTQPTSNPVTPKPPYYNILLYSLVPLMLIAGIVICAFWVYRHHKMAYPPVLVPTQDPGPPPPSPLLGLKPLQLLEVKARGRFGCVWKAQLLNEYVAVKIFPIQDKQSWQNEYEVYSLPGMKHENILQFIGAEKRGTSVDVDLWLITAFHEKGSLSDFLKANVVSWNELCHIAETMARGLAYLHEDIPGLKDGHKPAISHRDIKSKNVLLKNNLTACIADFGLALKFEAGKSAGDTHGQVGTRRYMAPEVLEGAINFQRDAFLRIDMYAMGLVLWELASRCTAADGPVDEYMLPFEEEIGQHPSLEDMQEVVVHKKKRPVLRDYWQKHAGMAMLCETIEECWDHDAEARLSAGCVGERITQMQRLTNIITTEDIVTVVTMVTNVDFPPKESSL
Structure (SMILES),residual activity [1] [%],residual activity [2] [%],residual activity [3] [%],residual activity [4] [%],residual activity [5] [%],residual activity [6] [%],residual activity [7] [%],residual activity [8] [%],residual activity [9] [%],residual activity [10] [%],residual activity [11] [%],residual activity [12] [%],residual activity [13] [%],residual activity [14] [%],residual activity [15] [%],residual activity [16] [%],residual activity [17] [%],residual activity [18] [%],residual activity [19] [%],residual activity [20] [%],further results
CCOC(=O)c1cc2cc(-c3cc(C(=O)NCc4ccc(C(=O)O)cc4)nn3C)ccc2[nH]1 [BI 4394],59,85,100,97,99,84,100,100,90,95,65,100,100,80,100,75,85,89,100,87,residual activity [21]: 93%; residual activity [22]: 77%; residual activity [23]: 69%; residual activity [24]: 85%; residual activity [25]: 100%; residual activity [26]: 100%; residual activity [27]: 75%; residual activity [28]: 100%; residual activity [29]: 90%; residual activity [30]: 100%; residual activity [31]: 100%; residual activity [32]: 81%; inhibition [33]: 3.56%; inhibition [34]: -7.04%; residual activity [35]: 100%; residual activity [36]: 96%; residual activity [37]: 100%; inhibition [38]: 7.64%
Cn1nc(C(=O)NCc2ccc(C(=O)O)cc2)cc1-c1ccc2[nH]ccc2c1 [BI 4395],98,72,100,82,94,85,100,98,98,63,74,49,65,95,76,100,83,83,84,80,residual activity [21]: 100%; residual activity [22]: 100%; residual activity [23]: 96%; residual activity [24]: 90%; residual activity [25]: 83%; residual activity [26]: 70%; residual activity [27]: 92%; residual activity [28]: 83%; residual activity [29]: 89%; residual activity [30]: 100%; residual activity [31]: 100%; residual activity [32]: 65%; inhibition [33]: -9.67%; inhibition [34]: -7.92%; residual activity [35]: 76%; residual activity [36]: 88%; residual activity [37]: 95%; inhibition [38]: -7.43%
